Cc1ccc(N)cc1N
Settings	solubility (mole fraction)
in di(2-ethylhexyl) phthalate, 312.45 K	0.061
in di(2-ethylhexyl) phthalate, 324.25 K	0.075
in di(2-ethylhexyl) phthalate, 332.52 K	0.0871
in di(2-ethylhexyl) phthalate, 340.05 K	0.0972
in di(2-ethylhexyl) phthalate, 349.75 K	0.108
in di(2-ethylhexyl) phthalate, 361.55 K	0.127
in dimethyl carbonate, 305.75 K	0.107
in dimethyl carbonate, 310.05 K	0.113
in dimethyl carbonate, 312.85 K	0.116
in dimethyl carbonate, 316.55 K	0.118
in dimethyl carbonate, 317.45 K	0.121
in dimethyl carbonate, 321.35 K	0.124
in dimethyl carbonate, 327.35 K	0.126
in dimethyl carbonate, 333.45 K	0.129

COC(=O)Nc1ccc(C)c(NC(=O)OC)c1
Settings	solubility (mole fraction)
in di(2-ethylhexyl) phthalate, 334.25 K	0.167
in di(2-ethylhexyl) phthalate, 346.95 K	0.172
in di(2-ethylhexyl) phthalate, 363.65 K	0.178
in di(2-ethylhexyl) phthalate, 378.65 K	0.186
in di(2-ethylhexyl) phthalate, 389.55 K	0.195
in di(2-ethylhexyl) phthalate, 398.15 K	0.2
in dimethyl carbonate, 307.75 K	0.0087
in dimethyl carbonate, 316.15 K	0.013
in dimethyl carbonate, 324.35 K	0.0173
in dimethyl carbonate, 330.65 K	0.0216
in dimethyl carbonate, 335.85 K	0.0258
in dimethyl carbonate, 339.35 K	0.0299
in dimethyl carbonate, 343.65 K	0.0341
in dimethyl carbonate, 353.15 K	0.0423
in dimethyl carbonate, 360.75 K	0.0503
in dimethyl carbonate, 365.15 K	0.0535

COC(=O)Nc1ccc(C)c(N)c1
Settings	solubility (mole fraction)
in di(2-ethylhexyl) phthalate, 326.55 K	0.032
in di(2-ethylhexyl) phthalate, 333.75 K	0.0422
in di(2-ethylhexyl) phthalate, 341.65 K	0.0522
in di(2-ethylhexyl) phthalate, 349.95 K	0.062
in di(2-ethylhexyl) phthalate, 363.55 K	0.081
in di(2-ethylhexyl) phthalate, 391.85 K	0.0992
in dimethyl carbonate, 306.35 K	0.0339
in dimethyl carbonate, 314.25 K	0.0446
in dimethyl carbonate, 316.75 K	0.0499
in dimethyl carbonate, 320.65 K	0.0552
in dimethyl carbonate, 323.45 K	0.0604
in dimethyl carbonate, 328.25 K	0.0655
in dimethyl carbonate, 334.45 K	0.0706
in dimethyl carbonate, 341.85 K	0.0756
